According to patent US20220347175A1, “PYRIDAZINONE DERIVATIVE” (Sumitomo Dainippon Pharma Co., Ltd., priority 2018, published 2022):

Biological target: T1, human Nav1.1 (Homo sapiens, UniProt P35498)
T1 construct: host or cells: HEK293
Assay: Amplification of Nav1.1-derived voltage-dependent sodium current (Nav1.1 current), cell line stably expressing human Nav1.1, automated patch clamp
Type: cell-based
Conditions: for activation at 10 µM / activation at 1 µM / activation at 50 µM: read-out: Nav1.1 current amplification rate (%)
Experimental: Test 1: Evaluation of the Amplification of Nav1.1-Derived Voltage-Dependent Sodium Current (Nav1.1 Current) by Using a Cell Line Stably Expressing Human Nav1.1
(1) Preparation of Test Compounds
Test compounds were prepared by dissolving in DMSO at 200 times of the concentration at evaluation, and diluting the obtained solution to twice the concentration of evaluation with an extracellular fluid (135 mmol/L NaCl, 4 mmol/L KCl, 1 mmol/L MgCl2, 5 mmol/L CaCl2, 5 mmol/L Glucose, 10 mmol/L HEPES).
(2) Induction and Measurement of Nav1.1 Current
A HEK293 cell line stably expressing human Nav1.1 (cat #CYL3009, Millipore, USA, Human Embryonic Kidney 293) was purchased, and used in the present test. Nav1.1 current was induced by stimulating Ramp wave voltage. Detection of current which accompanied with the stimulation of voltage was carried out by a patch-clamp voltage-clamp method using HTS automated patch clamp system (SynchroPatch 768PE, Nanion Technologies GmbH, Germany). Only cells with more than 500 pA of voltage-dependent sodium channel current were used for the evaluation of the activity of compounds on Nav1.1 current because there was the possibility that currents derived from endogenous voltage-dependent sodium channels accounted for large proportion in cells with less than 500 pA of voltage-dependent sodium channel current which was induced by stimulating Ramp wave voltage.
(3) Pharmacologic Effect on Nav1.1 Current
The effect of test compounds on the amplification of Nav1.1-derived voltage-dependent sodium current was evaluated by using a cell line stably expressing human Nav1.1 and HTS automated patch clamp system. In other words, test compounds were added in an extracellular fluid containing 1% DMSO, and evaluated as a change of the peak value of Nav1.1 current and the area under the curve (AUC).
(4) Method for Pharmacological Evaluation
The Nav1.1 current amplification rates of test compounds were calculated by the following formula:
Nav1.1 current amplification rate (%)=100×[the peak value of Nav1.1 current or the area under the curve after the addition of test compounds]/[the peak value of Nav1.1 current or the area under the curve before the addition of test compounds]−100

[1] = 10 μmol/L compound (Test Result 5)
[2] = compound 50 μmol/L, HEK293 stably expressing human Nav1.1
[3] = concentration of each compound 1 μmol/L (Test Result 6)

CC1(C)CCCC(c2ccc(=O)n(CC(=O)Nc3ccc(C#N)cc3)n2)C1 (centres unmarked) [Example 46]
Nav1.1 current amplification rate (%) [1]: 85%

N#Cc1ccc(NC(=O)Cn2nc(C3CCC(F)(F)CC3)ccc2=O)cc1 [Example 47]
Nav1.1 current amplification rate (%) [1]: 11%

N#Cc1ccc(NC(=O)Cn2nc(C3=CCCCO3)ccc2=O)cc1 [Example 48]
Nav1.1 current amplification rate (%) [1]: 33%

CC1C=C(c2ccc(=O)n(CC(=O)Nc3ccc(C#N)cc3)n2)CC(C)O1 (centres unmarked) [Example 49]
Nav1.1 current amplification rate (%) [1]: 2%

Cc1ccc(-c2ccc(=O)n(CC(=O)Nc3cncnc3)n2)cc1 [Example 141]
Nav1.1 current amplification rate (%) [1]: 46%

Cc1ccc(-c2ccc(=O)n(CC(=O)Nc3ccnnc3)n2)cc1 [Example 142]
Nav1.1 current amplification rate (%) [1]: 34%

Cc1ccc(-c2ccc(=O)n(CC(=O)N3CCc4ccccc43)n2)cc1 [Example 157]
Nav1.1 current amplification rate (%) [2]: 29%

CC1CCN(c2ccc(=O)n(CC(=O)N3CCN(c4ccccn4)CC3)n2)CC1 [Example 180]
activation at 10 µM [1]: 22%

COc1cccc2c1CCN2C(=O)Cn1nc(N2CCC(C)(C)CC2)ccc1=O [Example 186]
activation at 10 µM [1]: 51%

CC1(C)CCN(c2ccc(=O)n(CC(=O)Nc3ccn4ncnc4c3)n2)CC1 [Example 228]
activation at 1 µM [3]: 29%

CC1CCN(c2ccc(=O)n(CC(=O)Nc3ccn4ncnc4c3)n2)CC1 [Example 229]
activation at 1 µM [3]: 34%

O=C(Cn1nc(N2CCC3(CCC3)C2)ccc1=O)Nc1ccn2ncnc2c1 [Example 230]
activation at 1 µM [3]: 33%

O=C(Cn1nc(N2CCC3(CCC3)CC2)ccc1=O)Nc1ccn2ncnc2c1 [Example 231]
activation at 1 µM [3]: 50%

CC1CCN(c2ccc(=O)n(CC(=O)Nc3ccc4c(c3)NCC4)n2)CC1 [Example 233]
activation at 50 µM [2]: 47%

O=C(Cn1nc(N2CCC3(CCC3)C2)ccc1=O)Nc1ccc2cncnc2c1 [Example 236, 2-[3-(6-azaspiro[3.4]octan-6-yl)-6-oxopyridazin-1(6H)-yl]-N-(quinazolin-7-yl)acetamide]
activation at 1 µM [3]: 214%

CC1CC2CCC(C1)N2c1ccc(=O)n(CC(=O)Nc2ccn3ccnc3c2)n1 (centres unmarked) [Example 237]
activation at 50 µM [2]: 27%

CC1CC2CCC(C1)N2c1ccc(=O)n(CC(=O)N2CCc3c(N4CCOCC4)cccc32)n1 (centres unmarked) [Example 238]
activation at 50 µM [2]: 128%

Cc1nc(N2CCN(C(=O)Cn3nc(C4=CCC(C)CC4)ccc3=O)CC2)no1 (centres unmarked) [Example 406]
Nav1.1 current amplification rate (%) [2]: 68%

CC1CC=C(c2ccc(=O)n(CC(=O)N3CCN(C4CCCOC4)CC3)n2)CC1 (centres unmarked) [Example 408]
Nav1.1 current amplification rate (%) [2]: 80%

CC1CC=C(c2ccc(=O)n(CC(=O)N3CCN(C4CCOCC4)CC3)n2)CC1 (centres unmarked) [Example 411]
Nav1.1 current amplification rate (%) [2]: 18%

CC1CC=C(c2ccc(=O)n(CC(=O)N3CCN(c4ccn(C)n4)CC3)n2)CC1 (centres unmarked) [Example 412]
Nav1.1 current amplification rate (%) [2]: 36%

CC1CC=C(c2ccc(=O)n(CC(=O)N3CC=C(c4ccncc4)CC3)n2)CC1 (centres unmarked) [Example 419]
Nav1.1 current amplification rate (%) [3]: 66%

CC1CC=C(c2ccc(=O)n(CC(=O)N3CC=C(c4ccccn4)CC3)n2)CC1 (centres unmarked) [Example 420]
Nav1.1 current amplification rate (%) [1]: 39%

O=C(Cn1nc(C2=CCCC2)ccc1=O)Nc1ccn2ccnc2c1 [Example 457]
Nav1.1 current amplification rate (%) [2]: 29%

O=C(Cn1nc(-c2cc(Cl)cs2)ccc1=O)Nc1ccn2ccnc2c1 [Example 467]
Nav1.1 current amplification rate (%) [3]: 80%

O=C(Cn1nc(C2=CCCC2)ccc1=O)N1CCc2c(N3CCOCC3)cccc21 [Example 481]
Nav1.1 current amplification rate (%) [1]: 128%

O=C(Cn1nc(C2=CCCCC2)ccc1=O)Nc1ccn2ncnc2c1 [Example 495]
activation at 1 µM [3]: 28%

CC1(C)CC=C(c2ccc(=O)n(CC(=O)Nc3ccn4ncnc4c3)n2)C1 [Example 496]
activation at 1 µM [3]: 37%

O=C(Cn1nc(-c2cc(Cl)cs2)ccc1=O)Nc1ccn2ncnc2c1 [Example 497]
activation at 1 µM [3]: 43%

N#Cc1ccsc1-c1ccc(=O)n(CC(=O)Nc2ccn3ncnc3c2)n1 [Example 498]
activation at 10 µM [1]: 24%

COc1cc(=O)n(CC(=O)Nc2ccn3ncnc3c2)nc1C1=CCC(C)(C)CC1 [Example 499]
activation at 1 µM [3]: 50%

COc1cc(=O)n(CC(=O)Nc2ccc3oc(N(C)C)nc3c2)nc1C1=CCC(C)(C)CC1 [Example 500]
activation at 1 µM [3]: 14%
